Reference: patent US9062066B2, “Anti-inflammatory compound having inhibitory activity against multiple tyrosine kinases and pharmaceutical composition containing same” (KOREA INSTITUTE OF SCIENCE AND TECHNOLOGY, priority 2010, dated 2015)
Where two headings read alike, the source gives them in different places.

Experiments:
Lyn tyrosine kinase = Lyn tyrosine kinase (Homo sapiens (Human), UniProt P07948); test: in vitro Lyn tyrosine kinase inhibition; format: biochemical; settings: read-out: % inhibition against Lyn
mouse skin fibroblast = test: inhibition of migration of activated fibroblast (scratch wound); format: cell-based; settings: read-out: Inhibition (%) of migration of activated fibroblast
Experimental: The straight line of regular width was made using a micro pipette tip for a scratch wound on the mono-layer culture, and then the culture was exchanged to DMEM medium and incubated with 10 ng/ml of TGF-β1 in cell culture incubator of 37° C. for 24 hours. The cultured cells were fixed using formalin and stained with crystal violet. Photo-pictures were taken at 100× magnification in five location selected randomly in the scratched wound site of each stained culture dish and then the number of the cells moved into the scratched wound area was counted and averaged.

[1] = system: oxazolone-induced skin inflammation of Balb/C mouse ears; test: mouse skin inflammatory model induced by oxazolone (ear thickness); format: in vivo; settings: 20 ul of 0.1% compound topical on ear, 36 hours after oxazolone
Experimental: The compounds of the present invention were evaluated for their effective anti-inflammatory activity using a skin inflammatory animal model of 8 weeks old Balb/C mouse ears induced by oxazolone. […] After 4 days, the thickness of ear was measured using a caliper for the thickness value of ear before the induction of inflammation. […] After 36 hours, the thickness of ear was measured for the increased thickness induced by inflammation. […] The average value was obtained in each group (n=4).

DDR1 tyrosine kinase = DDR1 tyrosine kinase (Homo sapiens (Human), UniProt Q08345); test: in vitro DDR1 tyrosine kinase inhibition (GST-fused kinase domain); format: biochemical; settings: read-out: % inhibition against DDR1
DDR2 tyrosine kinase = DDR2 tyrosine kinase (Homo sapiens (Human), UniProt Q16832); test: in vitro DDR2 tyrosine kinase inhibition (GST-fused kinase domain); format: biochemical; settings: read-out: % inhibition against DDR2
[2] = system: TNF-α synthesis in J744A.1 macrophages; test: inhibition of TNF-α synthesis in LPS-activated macrophages (ELISA); format: cell-based; settings: Macrophage, read-out: Inhibition (%) of TNF-α synthesis
[3] = system: NO synthesis in J744A.1 macrophage; test: inhibition of nitric oxide (NO) synthesis in LPS-activated macrophages (Griess reagent); format: cell-based; settings: read-out: Inhibition (%) of NO synthesis
Fgr tyrosine kinase = Fgr tyrosine kinase (Homo sapiens (Human), UniProt P09769); test: in vitro Fgr tyrosine kinase inhibition; format: biochemical; settings: read-out: % inhibition against Fgr
Hck tyrosine kinase = Hck tyrosine kinase (Homo sapiens (Human), UniProt P08631); test: in vitro Hck tyrosine kinase inhibition; format: biochemical; settings: read-out: % inhibition against Hck
[4] = system: α-smooth muscle actin protein expression in skin fibroblast cells; test: inhibition of α-smooth muscle actin expression in fibroblast activated by type I collagen and TGF-β1 (western blotting); format: cell-based, Balb/C mouse; settings: Mus musculus, read-out: Inhibition (%) of α-smooth muscle actin increase
Source text: When fibroblast, […] alpha smooth muscle cells are converted to myofibroblast by activation, one of characteristic features is that α-smooth muscle actin protein expression is increased. Also myoblast cells with the increased α-smooth muscle actin expression have a character of an increased migration. These phenomena appear together with the activation of inflammatory cells and the activated myoblast-type cells are known to contribute directly to the pathology of inflammatory diseases. […] In this experiment, the expression level of alpha smooth muscle actin can be quantificated by measuring the density of α-smooth muscle actin protein band with densitometer after developing the X-ray film of chemiluminescence signal in western blotting experiment.

c-Src tyrosine kinase = c-Src tyrosine kinase (Homo sapiens (Human), UniProt P12931); test: in vitro c-Src tyrosine kinase inhibition (32P-ATP, poly(D4Y)n substrate); format: biochemical; settings: read-out: % inhibition against c-Src
[5] = 0.5 uM compound, 10 ng/ml TGF-β1, 24 hours
[6] = 10 μM compound, 100 ng/ml LPS, 6 hours
[7] = 0.5 uM compound, 10 ng/ml TGF-β1, 48 hours, type I collagen

Chain of DDR1 tyrosine kinase (Q08345 610-905): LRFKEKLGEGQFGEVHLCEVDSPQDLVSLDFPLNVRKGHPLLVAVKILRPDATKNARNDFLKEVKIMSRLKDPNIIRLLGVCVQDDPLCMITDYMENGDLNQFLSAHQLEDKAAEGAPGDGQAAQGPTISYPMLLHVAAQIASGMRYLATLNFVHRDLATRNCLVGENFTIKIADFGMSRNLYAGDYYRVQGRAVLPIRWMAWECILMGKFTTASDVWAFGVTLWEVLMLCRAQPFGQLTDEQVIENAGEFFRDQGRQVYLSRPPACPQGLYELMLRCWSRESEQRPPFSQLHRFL
Chain of Fgr tyrosine kinase (P09769 whole entry): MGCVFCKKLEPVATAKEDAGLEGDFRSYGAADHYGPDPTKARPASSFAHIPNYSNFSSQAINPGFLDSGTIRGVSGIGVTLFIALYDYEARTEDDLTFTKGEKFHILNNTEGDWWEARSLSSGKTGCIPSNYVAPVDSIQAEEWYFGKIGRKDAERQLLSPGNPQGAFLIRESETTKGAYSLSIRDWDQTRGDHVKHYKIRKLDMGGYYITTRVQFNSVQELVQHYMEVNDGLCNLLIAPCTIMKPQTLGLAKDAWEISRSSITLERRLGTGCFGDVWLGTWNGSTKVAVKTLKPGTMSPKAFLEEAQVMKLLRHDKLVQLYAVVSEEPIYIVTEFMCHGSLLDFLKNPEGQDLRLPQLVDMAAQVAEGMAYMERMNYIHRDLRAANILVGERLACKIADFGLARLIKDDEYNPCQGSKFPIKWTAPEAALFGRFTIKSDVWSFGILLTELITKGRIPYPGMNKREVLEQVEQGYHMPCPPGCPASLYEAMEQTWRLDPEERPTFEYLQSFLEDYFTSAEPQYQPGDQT
Chain of c-Src tyrosine kinase (P12931 whole entry, looked up): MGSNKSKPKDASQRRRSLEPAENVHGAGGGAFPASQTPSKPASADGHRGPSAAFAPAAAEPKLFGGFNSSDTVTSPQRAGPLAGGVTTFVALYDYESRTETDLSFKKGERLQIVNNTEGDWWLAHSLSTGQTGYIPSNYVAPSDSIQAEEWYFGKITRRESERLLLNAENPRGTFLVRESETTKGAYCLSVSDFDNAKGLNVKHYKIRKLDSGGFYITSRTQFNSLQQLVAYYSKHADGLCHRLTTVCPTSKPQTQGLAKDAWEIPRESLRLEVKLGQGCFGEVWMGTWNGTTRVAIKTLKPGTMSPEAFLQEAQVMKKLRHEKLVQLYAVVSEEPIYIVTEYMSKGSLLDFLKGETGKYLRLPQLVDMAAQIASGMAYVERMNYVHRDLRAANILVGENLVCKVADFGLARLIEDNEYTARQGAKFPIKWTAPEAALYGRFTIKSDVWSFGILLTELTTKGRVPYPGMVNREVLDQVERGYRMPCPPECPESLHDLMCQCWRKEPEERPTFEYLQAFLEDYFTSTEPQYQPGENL
Chain of Hck tyrosine kinase (P08631 whole entry): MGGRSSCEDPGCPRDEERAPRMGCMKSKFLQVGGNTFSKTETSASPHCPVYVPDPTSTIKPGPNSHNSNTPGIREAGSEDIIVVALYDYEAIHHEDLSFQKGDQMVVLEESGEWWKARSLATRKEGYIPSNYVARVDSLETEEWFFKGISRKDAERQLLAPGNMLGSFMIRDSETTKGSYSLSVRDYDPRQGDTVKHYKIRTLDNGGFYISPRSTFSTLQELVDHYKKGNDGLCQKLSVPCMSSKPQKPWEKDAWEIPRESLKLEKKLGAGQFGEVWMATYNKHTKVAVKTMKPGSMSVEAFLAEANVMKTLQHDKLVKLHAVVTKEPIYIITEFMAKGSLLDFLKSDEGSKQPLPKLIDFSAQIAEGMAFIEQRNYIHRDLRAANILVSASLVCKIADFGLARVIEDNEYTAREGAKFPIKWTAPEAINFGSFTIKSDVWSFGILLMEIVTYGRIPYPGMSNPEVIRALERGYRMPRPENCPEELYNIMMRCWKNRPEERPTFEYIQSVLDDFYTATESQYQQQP
Chain of DDR2 tyrosine kinase (Q16832 563-849): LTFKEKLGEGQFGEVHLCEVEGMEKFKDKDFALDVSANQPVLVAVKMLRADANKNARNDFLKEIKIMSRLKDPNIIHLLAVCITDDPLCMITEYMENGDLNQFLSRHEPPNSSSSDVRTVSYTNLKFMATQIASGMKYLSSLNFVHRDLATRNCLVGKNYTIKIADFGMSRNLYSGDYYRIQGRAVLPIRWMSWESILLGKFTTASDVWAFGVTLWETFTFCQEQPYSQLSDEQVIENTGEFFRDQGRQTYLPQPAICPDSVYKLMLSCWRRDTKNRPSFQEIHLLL
Chain of Lyn tyrosine kinase (P07948 whole entry): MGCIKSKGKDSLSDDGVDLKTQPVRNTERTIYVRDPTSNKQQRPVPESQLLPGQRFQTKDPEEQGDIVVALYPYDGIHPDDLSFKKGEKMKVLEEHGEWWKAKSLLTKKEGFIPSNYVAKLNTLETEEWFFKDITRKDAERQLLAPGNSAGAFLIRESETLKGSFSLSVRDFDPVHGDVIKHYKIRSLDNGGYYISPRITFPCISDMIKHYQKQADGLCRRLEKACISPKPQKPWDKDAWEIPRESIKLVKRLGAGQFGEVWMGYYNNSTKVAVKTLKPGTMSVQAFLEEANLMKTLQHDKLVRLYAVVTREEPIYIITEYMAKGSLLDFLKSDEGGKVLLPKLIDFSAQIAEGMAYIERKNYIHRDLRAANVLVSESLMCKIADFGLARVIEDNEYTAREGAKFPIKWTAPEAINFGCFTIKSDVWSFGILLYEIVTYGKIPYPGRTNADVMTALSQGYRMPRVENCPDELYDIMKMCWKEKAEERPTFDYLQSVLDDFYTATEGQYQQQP

| inhibition at 1 µM (Lyn tyrosine kinase; 1 uM compound) [%] | inhibition at 1 µM (DDR1 tyrosine kinase; 1 uM compound) [%] | inhibition at 1 µM (DDR2 tyrosine kinase; 1 uM compound) [%] | inhibition at 1 µM (Fgr tyrosine kinase; 1 uM compound) [%] | inhibition at 1 µM (Hck tyrosine kinase; 1 uM compound) [%] | inhibition at 1 µM (c-Src tyrosine kinase; 1 uM compound) [%] | SMILES | Inhibition (%) of increase of ear thickness [1] [%] | inhibition at 0.5 µM (mouse skin fibroblast; [5]) [%] | inhibition at 10 µM [2, 6] [%] | inhibition at 10 µM ([3]; 10 μM compound, LPS, 24 hours) [%] | inhibition at 0.5 µM [4, 7] [%] | also measured |
| --- | --- | --- | --- | --- | --- | --- | --- | --- | --- | --- | --- | --- |
|  |  |  |  |  |  | Cc1cc2cc(Nc3ccnc4cc(C(=O)N5CC[C@@H](O)C5)sc34)ccc2n1C(=O)NC1CC1 [Control compound 1, 5-[2-(3R-hydroxy-pyrrolidine-1-carbonyl)-thieno[3,2-b]pyridine-7-ylamino]-2-methyl-indole-1-carboxyacid cycloprophylamide, reference compound] | 3 |  |  |  |  | inhibition at 1 µM (Lyn tyrosine kinase): < 20%; inhibition at 0.5 µM (mouse skin fibroblast; 24 h): 17%; inhibition at 1 µM (DDR1 tyrosine kinase): < 20%; inhibition at 1 µM (DDR2 tyrosine kinase): < 20%; inhibition at 10 µM ([2]; 6 h): 16%; inhibition at 10 µM ([3]; 24 h): 32%; inhibition at 1 µM (Fgr tyrosine kinase): < 20%; inhibition at 1 µM (Hck tyrosine kinase): < 20%; inhibition at 0.5 µM ([4]; 48 h): 16%; inhibition at 1 µM (c-Src tyrosine kinase): < 20% |
| < 20 | < 20 | < 20 | < 20 | < 20 | < 20 | COC[C@@H]1CCCN1C(=O)c1cc2nccc(Nc3ccc4c(c3)cc(C)n4C(=O)NC3CC3)c2s1 [Control compound 2, 5-(2-[(S)-2-(methoxymethyl)pyrrolidine-1-carbonyl]thieno[3,2-b]pyridine-7-ylamino)-2-methylindole-1-carboxyacid cycloprophylamide, reference compound] |  | 14 | 39 | 45 | 22 |  |
| < 20 | < 20 | < 20 | < 20 | < 20 | < 20 | CO[C@@H]1C[C@@H](CO)N(C(=O)c2cc3nccc(Nc4ccc5c(c4)cc(C)n5C(=O)NC4CC4)c3s2)C1 [Control compound 3, reference compound] | 22 | 11 | 19 | 21 | 8 |  |
| > 80 | > 80 | > 80 | > 80 | > 80 | > 80 | Oc1cccc(Nc2ncnc3cc(-c4ccc(CN5CCOCC5)cc4)sc23)c1 [LCB 03-0032, 3-(6-(4-(morpholinomethyl)phenyl)thieno[3,2-d]pyrimidin-4-ylamino)phenol] | 27 | 35 | 77 | 92 | 56 |  |
| > 60 | > 80 | > 80 | > 60 | > 60 | > 60 | Oc1cccc(Nc2ncnc3cc(-c4ccc(CN5CCNCC5)cc4)sc23)c1 [LCB 03-0033, 3-(6-(4-(piperazine-1-ylmethyl)phenyl)thieno[3,2-d]pyrimidin-4-ylamino)phenol] | 22 | 30 | 59 | 77 | 60 |  |
| > 80 | > 80 | > 80 | > 80 | > 70 | > 80 | Cl.Oc1cccc(Nc2ncnc3cc(-c4ccc(CN5CCCC5)cc4)sc23)c1 [LCB 03-0034, 3-(6-(4-(pyrrolidin-1-ylmethyl)phenyl)thieno[3,2-d]pyrimidin-4-ylamino)phenol] | 29 | 32 | 75 | 90 | 67 |  |
| > 80 | > 80 | > 80 | > 80 | > 80 | > 80 | Oc1cccc(Nc2ncnc3cc(-c4ccc(CN5CCCCC5)cc4)sc23)c1 [LCB 03-0035, 3-(6-(4-(piperidin-1-ylmethyl)phenyl)thieno[3,2-d]pyrimidin-4-ylamino)phenol] | 31 | 31 | 65 | 91 | 55 |  |
| > 80 | > 80 | > 80 | > 80 | > 80 | > 80 | CN1CCN(Cc2ccc(-c3cc4ncnc(Nc5cccc(O)c5)c4s3)cc2)CC1 [LCB 03-0036, 3-(6-(4-((4-methylpiperazin-1-yl)methyl)phenyl)thieno[3,2-d]pyrimidin-4-ylamino)phenol] | 28 | 39 | 61 | 81 | 63 |  |
| > 80 | > 80 | > 80 | > 70 | > 80 | > 80 | CCN(CC)Cc1ccc(-c2cc3ncnc(Nc4cccc(O)c4)c3s2)cc1 [LCB 03-0037] | 33 | 37 | 73 | 93 | 55 |  |
| > 80 | > 80 | > 80 | > 80 | > 80 | > 80 | Oc1cccc(Nc2ncnc3cc(-c4ccc(CNC5CC5)cc4)sc23)c1 [LCB 03-0040] | 31 | 43 | 84 | 93 | 55 |  |
| > 80 | > 80 | > 80 | > 80 | > 80 | > 80 | CC(C)CNCc1ccc(-c2cc3ncnc(Nc4cccc(O)c4)c3s2)cc1 [LCB 03-0041] | 29 | 39 | 87 | 91 | 66 |  |
| > 80 | > 80 | > 80 | > 80 | > 80 | > 80 | CCNCc1ccc(-c2cc3ncnc(Nc4cccc(O)c4)c3s2)cc1 [LCB 03-0042] | 33 | 46 | 98 | 91 | 69 |  |
|  | > 80 | > 80 |  |  |  | Cl.Oc1cccc(Nc2ncnc3cc(-c4ccc(CN5CCC(O)C5)cc4)sc23)c1 (stereo not shown) [LCB 03-0072, 1-(4-(4-(3-hydroxyphenylamino)thieno[3,2-d]pyrimidin-6-yl)benzyl)pyrrolidin-3-ol] | 48 | 27 | 59 | 76 | 39 |  |

| SMILES | inhibition at 1 µM (Lyn tyrosine kinase; 1 uM compound) [%] | inhibition at 1 µM (DDR1 tyrosine kinase; 1 uM compound) [%] | inhibition at 1 µM (DDR2 tyrosine kinase; 1 uM compound) [%] | inhibition at 1 µM (Fgr tyrosine kinase; 1 uM compound) [%] | inhibition at 1 µM (Hck tyrosine kinase; 1 uM compound) [%] | inhibition at 1 µM (c-Src tyrosine kinase; 1 uM compound) [%] | Inhibition (%) of increase of ear thickness [1] [%] | inhibition at 0.5 µM (mouse skin fibroblast; [5]) [%] | inhibition at 10 µM [2, 6] [%] | inhibition at 10 µM ([3]; 10 μM compound, LPS, 24 hours) [%] | inhibition at 0.5 µM [4, 7] [%] | also measured |
| --- | --- | --- | --- | --- | --- | --- | --- | --- | --- | --- | --- | --- |
| CCNCc1ccc(-c2cc3ncnc(Nc4cccc(O)c4)c3s2)s1 [LCB 03-0095, 3-(6-(5-((ethylamino)methyl)thiophene-2-yl)thieno[3,2-d]pyrimidin-4-ylamino)phenol] | > 60 | > 80 | > 80 | > 60 | > 50 | > 60 | 43 | 23 |  |  | 37 | inhibition at 10 µM ([3]; 24 h): 59% |
